According to paper PMC10636063, “Progesterone activation of β1-containing BK channels involves two binding sites” (Nature Communications, 2023):
Where “and” joins values, the source holds several entries; their conditions need not be identical. Equal values may be shown once.

Experiments:
[1] = target: T1, smooth muscle myocyte BK channels (KCNMB1-/-) (Mus musculus, UniProt Q08460); test: Inside-out patch-clamp of MCA smooth muscle myocytes, KCNMB1-/- mice; assay type: cell-based; details: for normalized NPo, time course Fig 5C: beta1KO, PROG 10uM
T1 construct: endogenous in cells; host or cells: freshly isolated middle cerebral artery smooth muscle cells of KCNMB1-/- mice, inside-out patches
Protocol: Ionic currents were recorded from excised, inside-out (I/O) patches. […] In all experiments, free [Ca^2+] in solution was adjusted to the desired value by adding the appropriate amount of Ca^2+ from a 1 mM CaCl2 stock. An agar bridge with Cl^- as main anion was used as ground electrode. Solutions were applied onto the cytosolic side of I/O patches using an automated, pressurized system (Octaflow; […] Ionic currents at single channel resolution were recorded using an EPC8 amplifier (HEKA) at 1 kHz. Data were digitized at 5 kHz using a Digidata […] A/D converter and pCLAMP 8.0 (Molecular Devices); n = 5/group. […] Drug-induced NPo changes were determined by comparing baseline NPo (i.e., NPo with the patch/cell perfused with bath solution) to the NPo from the same patch/cell exposed to the agent under study (DMSO/PROG/oxime) dissolved in bath solution.

β1Y32F = target: T2, β1Y32F (Rattus norvegicus, UniProt P97678, Y32F); test: Thermal unfolding (MST) of β1Y32F; assay type: binding
T2 construct: FLAG (DYKDDDDK); made in house; host or cells: CHO cells, transient transfection, anti-flag immunoprecipitation
From the text: BK channel-forming slo1 cDNA (cbv1 isoform; AY330293) was cloned from rat cerebral artery SM cells, and inserted into pcDNA3.1 vector as described. BK β1 cDNA (KCNMB1 product; NP_011452; FJ154955) were isolated from rat cerebral artery SM cells and cloned as described. β4 cDNA (KCNMB4; NP_055320; AY028605) were generously provided by Dr. Ligia Toro. CHO cells were transiently transfected with cbv1 ± β1-, or β4-carrying pcDNA3.1 using X-tremeGENE HP (Sigma-Aldrich). Mutations to β1/4 cDNAs were conducted by Genscript, with sequences being confirmed to be >99% identical to KCNMB1 product; NP_011452 or β4 KCNMB4; NP_055320; respectively. β1/4 and mutant constructs were flag-tagged (DYKDDDDK-tag) by Genscript services for subsequent immunoprecipitation and use in microscale thermophoresis studies.
Wt β1, wt β4 and mutant constructs were purified by immunoprecipitation using Dynabeads Protein G Kit (10007D by Invitrogen) and following the manufacturer’s instructions. […] The unfolding profile of a protein is a plot of its fluorescence signal against temperature. […] During the heating process, fluorescence is recorded at 330 and 350 nm. The resulting fluorescence ratio change is then analyzed for onset and inflection points. The temperature of onset and inflection is determined using built-in analysis function in Nanotemper PR.therm-control software. […]

T1 sequence (Q08460 whole entry): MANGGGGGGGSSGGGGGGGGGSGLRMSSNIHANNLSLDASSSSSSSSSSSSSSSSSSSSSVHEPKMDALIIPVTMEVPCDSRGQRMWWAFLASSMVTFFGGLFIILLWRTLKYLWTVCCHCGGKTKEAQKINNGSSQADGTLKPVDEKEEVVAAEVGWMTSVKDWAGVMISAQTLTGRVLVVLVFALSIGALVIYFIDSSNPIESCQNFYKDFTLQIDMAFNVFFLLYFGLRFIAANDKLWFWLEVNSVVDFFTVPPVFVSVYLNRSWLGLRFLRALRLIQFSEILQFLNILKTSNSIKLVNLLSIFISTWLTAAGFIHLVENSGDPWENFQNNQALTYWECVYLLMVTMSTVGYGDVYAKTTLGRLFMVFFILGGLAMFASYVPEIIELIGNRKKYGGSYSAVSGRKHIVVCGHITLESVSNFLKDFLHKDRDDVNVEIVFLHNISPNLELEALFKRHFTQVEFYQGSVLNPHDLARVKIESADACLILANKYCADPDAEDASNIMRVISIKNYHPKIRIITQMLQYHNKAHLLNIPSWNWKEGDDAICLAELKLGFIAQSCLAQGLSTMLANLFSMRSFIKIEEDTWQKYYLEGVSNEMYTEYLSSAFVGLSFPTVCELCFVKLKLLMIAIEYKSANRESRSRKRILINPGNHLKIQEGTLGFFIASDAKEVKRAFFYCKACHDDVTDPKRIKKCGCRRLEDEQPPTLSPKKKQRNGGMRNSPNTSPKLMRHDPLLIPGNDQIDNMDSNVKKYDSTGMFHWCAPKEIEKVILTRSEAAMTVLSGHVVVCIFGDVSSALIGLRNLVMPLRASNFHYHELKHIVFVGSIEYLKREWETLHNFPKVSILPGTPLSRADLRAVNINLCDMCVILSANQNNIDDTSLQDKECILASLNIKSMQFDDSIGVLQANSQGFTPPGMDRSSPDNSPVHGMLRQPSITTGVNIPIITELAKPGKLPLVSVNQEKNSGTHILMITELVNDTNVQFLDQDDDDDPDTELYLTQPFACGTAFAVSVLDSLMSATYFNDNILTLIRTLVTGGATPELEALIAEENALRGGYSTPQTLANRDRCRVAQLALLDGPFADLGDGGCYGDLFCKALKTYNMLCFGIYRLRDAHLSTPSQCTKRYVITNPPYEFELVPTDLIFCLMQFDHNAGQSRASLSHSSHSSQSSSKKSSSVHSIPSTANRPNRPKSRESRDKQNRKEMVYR
T2 sequence (P97678 whole entry Y32F): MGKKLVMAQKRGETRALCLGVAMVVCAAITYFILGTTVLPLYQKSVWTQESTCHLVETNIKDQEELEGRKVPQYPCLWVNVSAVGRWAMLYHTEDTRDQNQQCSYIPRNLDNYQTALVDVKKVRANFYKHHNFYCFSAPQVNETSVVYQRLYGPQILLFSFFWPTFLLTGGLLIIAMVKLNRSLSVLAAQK

CC(=O)[C@H]1CC[C@H]2[C@@H]3CCC4=CC(=O)CC[C@]4(C)[C@H]3CC[C@]12C [PROG, Progesterone]
action on BK channel activity ([1]; 10 µM, I/O patches, 30 μM free Ca2+): consistently resistant to PROG
normalized NPo, scatter Fig 5D ([1]; KO, PROG, single cells (same values as 5C time 13)): 1.285 and 0.9695 and 0.9053 and 0.9515 and 1.0301
normalized NPo, time course Fig 5C ([1]; time 1 (normalisation reference), columns = cell number): 1
normalized NPo, time course Fig 5C ([1]; time 2): 0.9681 and 1.062 and 1.027 and 1.211 and 0.9954
normalized NPo, time course Fig 5C ([1]; time 3): 0.9157 and 1.074 and 1.107 and 1.076 and 1.008
normalized NPo, time course Fig 5C ([1]; time 4): 1.013 and 0.9333 and 1.023 and 1.02 and 0.9985
normalized NPo, time course Fig 5C ([1]; time 5): 0.8445 and 0.9395 and 0.9666 and 0.9766 and 1.044
normalized NPo, time course Fig 5C ([1]; time 6): 1.335 and 0.9407 and 1.013 and 1.133 and 0.9069
normalized NPo, time course Fig 5C ([1]; time 7): 1.401 and 0.9722 and 0.9298 and 1.141 and 1.008
normalized NPo, time course Fig 5C ([1]; time 8): 0.9307 and 0.9753 and 1 and 1.059 and 0.9374
normalized NPo, time course Fig 5C ([1]; time 9): 0.8843 and 0.9534 and 0.8763 and 1.168 and 1.029
normalized NPo, time course Fig 5C ([1]; time 10): 0.9107 and 1 and 0.9833 and 1.22 and 0.9731
normalized NPo, time course Fig 5C ([1]; time 11): 0.9343 and 1.019 and 1.187 and 1.237 and 0.9145
normalized NPo, time course Fig 5C ([1]; time 13): 0.9053 and 0.9515 and 1.0301 and 1.285 and 0.9695
normalized NPo, time course Fig 5C ([1]; time 14): 0.872 and 0.9873 and 0.9766 and 1.12 and 1.0626
normalized NPo, time course Fig 5C ([1]; time 15): 0.8834 and 0.9392 and 0.9933 and 1.107 and 1.032
normalized NPo, time course Fig 5C ([1]; time 16): 0.8292 and 1.033 and 0.8763 and 1.072 and 0.8061
normalized NPo, time course Fig 5C ([1]; time 17): 0.881 and 1.326 and 0.8485 and 1.237 and 0.7481
normalized NPo, time course Fig 5C ([1]; time 18): 0.8971 and 1.152 and 0.7759 and 1.189 and 1.06
normalized NPo, time course Fig 5C ([1]; time 19): 0.8576 and 1.179 and 0.7388 and 1.176 and 0.8214
normalized NPo, time course Fig 5C ([1]; time 20): 0.8348 and 0.9401 and 0.8127 and 1.189 and 0.8275
normalized NPo, time course Fig 5C ([1]; time 21): 0.9702 and 1.112 and 0.8729 and 1.098 and 1.041
normalized NPo, time course Fig 5C ([1]; time 22): 0.9222 and 1.09 and 0.9773 and 1.02
binding (β1Y32F): still bind PROG
